From patent publication US20260325473A1, “N-Beta-Hydroxybutyryl-Amino Acids and Related Compositions and Methods” (The Board of Trustees of the Leland Stanford Junior …, priority 2023, published 2026)

Assays:
[1] = Acute administration in DIO mice in home cages: food intake and plasma BHB-Phe; type: in vivo, mouse; details: mouse, plasma; 50 mg/kg IP, single; read-out: time of peak plasma level
Procedure: (§1) General animal information. Animal experiments were performed according to procedure approved by the Stanford University Administrative Panel on Laboratory Animal Care (APLAC). Mice were maintained in 12-hr light-dark cycles at 22° C. and ~50% relative humidity and fed a standard irradiated rodent chow diet. Where indicated, high-fat diet (D12492, Research Diets 60% kcal from fat) and ketogenic diet (D06040601, Research Diets, 80% kcal fat/15% kcal protein/5% kcal carbohydrate) was used. Male C57BL/6J (stock no. 000664) and male C57BL/6J DIO mice (stock no. 380050) were purchased from Jackson Laboratory. Male C57BL/6NCrl (stock no. 027) mice were purchased from Charles River Laboratory. Whole body CNDP2-KO mice (catalog number, C57BL/6NCrl-Cndp2em1 (IMPC) Mbp/Mmucd, RRID: MMRRC_043492-UCD) were obtained from the Mutant Mouse Regional Resource Center, a NCRR-NIH funded strain repository. For in vivo injection of mice with metabolites, compounds were dissolved in 18:1:1 (by volume) of saline/Kolliphor EL (Sigma Aldrich)/DMSO. Compounds were administered to mice daily via intraperitoneal injections at 5 μl/g body weight at the indicated doses. For all injection experiments, mice were mock injected with the vehicle for 3-5 days until body weights have stabilized. Sample sizes were determined on the basis of previous experiments using similar methodologies. For metabolite administration experiments, mice were randomly assigned to treatment groups. Experimenters were not blinded to groups.
(§2) Preparation of plasma samples for LC-MS analysis. Plasma was collected from mice via a submandibular bleed into lithium heparin tubes (BD, 365985) and immediately transferred onto ice. […]
(§3) Targeted metabolomics. […] Quantification of the endogenous metabolite concentrations were performed by generating a standard curve with known concentrations of each metabolite. Metabolite standards were analyzed alongside the plasma samples using the same targeted triple quadrupole LC/MS method. […] The dilution of the plasma during the sample preparation was also taken into account for the quantification.

DIO mice = assay: as above; type: in vivo, mouse; details: 50 mg/kg IP
Procedure: as §1, §2, §3

[2] = Keto-Med study, plasma metabolites; type: in vivo; details: human; 4 weeks WFKD vs baseline
Procedure: Targeted metabolomics. Targeted measurements were performed using an Agilent 6470 triple quadrupole LC-MS instrument. MS analysis was performed using AJS in negative mode. The AJS source parameters were set as follows: the dry gas temperature was set at 250° C. with a gas flow of 12 l/min and the nebulizer pressure at 25 psi; the sheath gas temperature was set to 300° C. with the sheath gas flow set at 12 l/min; and the capillary voltage was set to 3,500 V. Separation of polar metabolites was performed as described above in the ‘Untargeted measurements of metabolites by LC-MS’ section. Multiple reaction monitoring was performed for the indicated metabolites with the listed dwell times, fragmentor voltage, collision energies, cell accelerator voltages and polarities. Quantification of the endogenous metabolite concentrations were performed by generating a standard curve with known concentrations of each metabolite. Metabolite standards were analyzed alongside the plasma samples using the same targeted triple quadrupole LC/MS method. A calibration standard curve generated from the metabolite standard concentrations and total peak areas were used to calculate the concentrations of each endogenous metabolite. The dilution of the plasma during the sample preparation was also taken into account for the quantification.
Keto-Med study. Keto-Med was a single-site, randomized, crossover, interventional trial comparing 2 metabolically distinct diets (well-formulated ketogenic diet, WFKD; and Mediterranean-plus diet, Med-Plus) among individuals with prediabetes and T2DM. Forty participants aged ≥18 years with prediabetes or T2DM followed the WFKD and the Med-Plus for 12 weeks each, in random order. Participants were randomly assigned into 1 of 2 different diet sequences: WFKD for 12 weeks (phase 1) and then the Med-Plus for 12 weeks (phase 2), or the opposite order. Ad libitum intake was advised, and participants were guided to follow 2 sets of dietary guidelines that shared 3 important similarities (incorporating nonstarchy vegetables and avoiding added sugars and refined grains) and 3 important differences (incorporating compared with avoiding legumes, fruits, and whole, intact grains). During the WFKD phase, participants were counseled to sustain nutritional ketosis by limiting carbohydrates to 20-50 g/day and keeping proteins to ~1.5 g/kg ideal body weight/day, with the remaining kcals coming from fats. Participants were also instructed to consume >3 servings/day of nonstarchy vegetables and maintain adequate mineral and fluid intake for the ketogenic state (sodium, 3-5 g/day; potassium, 3-4 g/day). […]

Tmax [1] [h] | time to return of plasma level to largely baseline values (DIO mice; single) [h] | induction of plasma keto amino acids on WFKD [2] | Compound | food intake after single administration (home cages) (DIO mice; 3 h and 1 h)
1 | ≤ 3 | – | CC(O)CC(=O)N[C@@H](Cc1ccccc1)C(=O)O (stereo partly shown) [BHB-Phe, N-betahydroxybutyryl-phenylalanine] | suppressed food intake at a 3 h, but not 1 h time point
– | – | Robust induction | CC(O)CC(=O)N[C@H](C(=O)O)C(C)C (stereo partly shown) [BHB-Val, N-betahydroxybutyryl-valine] | –
